Values quoted from earlier work in US20020020828A1, “Non-toxic ethylene glycol-based antifreeze/heat transfer fluid concentrate and antifreeze/heat transfer fluid” (priority 2000, published 2002).

Test system: humans
Conditions: ingestion

Structure (SMILES): OCCO [EG, 1,2-ethandiol]
- toxic level in humans (reported as low as): 1,570 mg/kg
